What was measured:
[1] = tested on: rat paw edema; test: Rat paw edema assay (carrageenan); assay type: in vivo, Male Sprague-Dawley rats; settings: po, 1 hr before subplantar carrageenan, paw volume at 3 hr, read-out: ED50 (edema inhibition in rat paw)
Protocol: Male Sprague-Dawley rats (150-200 g) were fasted overnight and were given, po, either vehicle (1% methocel or 5% Tween 80), or a test compound. One hr later, a line was drawn using a permanent marker at the level above the ankle in one hind paw to define the area of the paw to be monitored. The paw volume (V0) was measured using a plethysmometer (Ugo-Basile, Italy) based on the principle of water displacement. The animals were then injected subplantarly with 50 μl of 1% carrageenan solution in saline (FMC Corp, Maine) into the paw using an insulin syringe with a 25-gauge needle (i.e., 500 μg carrageenan per paw). Three hr later, the paw volume (V3) was measured and the increases in paw volume (V3 -V0) were calculated. The animals were sacrificed by CO2 asphyxiation and the absence or presence of stomach lesions scored. Data were compared with the vehicle-control values and percent inhibition calculated. ED50 values were used for comparison. All treatment groups were coded to eliminate observer bias.

[2] = target: T1, COX-1 (Homo sapiens, UniProt P23219); test: Human whole blood assay, COX-1 (clotting-induced TxB2 production); assay type: cell-based; settings: 1 hour at 37° C
T1 construct: platelets in whole blood contain a large amount of the COX-1 enzyme; endogenous in cells; host or cells: platelets in fresh human whole blood
Protocol: (§1) As well, platelets in whole blood contain a large amount of the COX-1 enzyme. Immediately following blood clotting, platelets are activated through a thrombin-mediated mechanism. This reaction results in the production of thromboxane B2 (TxB2) via activation of COX-1.
Aliquots of 500 μL were immediately transferred to siliconized microcentrifuge tubes preloaded with 2 μL of either DMSO or a test compound at final concentrations varying from 10 nM to 30 μM.
(§2) In the assay, inhibition is determined by measuring the amount of prostaglandin E2 (PGE2) synthesized in the presence of arachidonic acid, COX-1 or COX-2 and a putative inhibitor.

[3] = target: T2, COX-2 (Homo sapiens, UniProt P35354); test: Human whole blood assay, COX-2 (LPS-induced PGE2 production); assay type: cell-based; settings: 24 hours at 37° C
T2 construct: incubation of human whole blood with LPS which induces COX-2; endogenous in cells; host or cells: LPS-stimulated fresh human whole blood (blood cells not specified)
T2 sequence (P35354 18-604): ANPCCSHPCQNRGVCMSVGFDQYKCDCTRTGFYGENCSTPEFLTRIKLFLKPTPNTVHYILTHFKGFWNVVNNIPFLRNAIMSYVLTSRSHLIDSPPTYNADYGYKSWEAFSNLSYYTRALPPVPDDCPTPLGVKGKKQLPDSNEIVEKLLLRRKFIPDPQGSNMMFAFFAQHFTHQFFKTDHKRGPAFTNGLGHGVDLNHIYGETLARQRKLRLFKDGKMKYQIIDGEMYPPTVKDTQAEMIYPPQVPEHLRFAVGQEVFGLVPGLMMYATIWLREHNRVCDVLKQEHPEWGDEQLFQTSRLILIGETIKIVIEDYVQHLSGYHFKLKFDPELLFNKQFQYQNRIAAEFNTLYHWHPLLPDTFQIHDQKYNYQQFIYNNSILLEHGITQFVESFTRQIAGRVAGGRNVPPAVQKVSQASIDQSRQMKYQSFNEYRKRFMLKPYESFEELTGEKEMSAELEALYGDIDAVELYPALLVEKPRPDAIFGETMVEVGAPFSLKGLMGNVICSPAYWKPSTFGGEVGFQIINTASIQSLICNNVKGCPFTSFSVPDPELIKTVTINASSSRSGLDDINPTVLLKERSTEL
Excerpt: as §1
Fresh blood was collected in heparinized tubes by venipuncture from both male and female volunteers. The subjects had no apparent inflammatory conditions and had not taken any NSAIDs for at least 7 days prior to blood collection. Plasma was immediately obtained from a 2 mL blood aliquot to use as blank (basal levels of PGE2).
as §2

T1 sequence (P23219 24-599): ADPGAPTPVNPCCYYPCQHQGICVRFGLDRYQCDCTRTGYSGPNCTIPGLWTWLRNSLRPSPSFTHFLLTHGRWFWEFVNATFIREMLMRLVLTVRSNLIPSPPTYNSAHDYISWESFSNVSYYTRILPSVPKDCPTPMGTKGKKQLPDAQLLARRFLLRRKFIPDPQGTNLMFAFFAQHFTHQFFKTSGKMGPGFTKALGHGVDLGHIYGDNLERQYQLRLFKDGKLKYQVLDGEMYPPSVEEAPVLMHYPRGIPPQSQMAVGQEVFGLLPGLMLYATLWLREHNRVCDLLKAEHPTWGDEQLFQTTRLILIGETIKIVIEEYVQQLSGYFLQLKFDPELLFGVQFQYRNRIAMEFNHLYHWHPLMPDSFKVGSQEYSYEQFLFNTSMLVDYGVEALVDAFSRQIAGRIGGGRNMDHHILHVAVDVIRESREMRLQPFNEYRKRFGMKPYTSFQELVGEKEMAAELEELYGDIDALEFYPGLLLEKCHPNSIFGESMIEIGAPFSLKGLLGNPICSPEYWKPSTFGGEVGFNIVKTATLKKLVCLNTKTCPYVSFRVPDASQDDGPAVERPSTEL

IC50 [2] [µM] | IC50 [3] [µM] | SMILES | ED50 [1] [mg/kg]
 |  | COc1ccc2c(c1)c(CC(=O)O)c(C)n2C(=O)c1ccc(Cl)cc1 [Indomethacin, indomethacin, reference compound] | 2
20 | 2.8 | CS(=O)(=O)c1ccc(-c2snnc2-c2ccc(F)cc2)cc1 [Example 2] | 0.5
63 | 1.3 | CS(=O)(=O)c1ccc(-c2snnc2-c2cccc(F)c2)cc1 [Example 3] | 
